Assay results from patent US20230150951A1, “2,5- OR 2,6-DISUBSTITUTED HYDROQUINONE DERIVATIVES WITH AT LEAST ONE CARBOXY, SULFO OR AMIDO GROUP USEFUL AS MEDICAMENTS” (OM PHARMA SA, priority 2020, published 2023).
“Also recorded” adds a separate entry of the source.

Tested on: acute pancreatitis murine model
Test: Caerulein-induced acute pancreatitis murine model
Format: in vivo, Balb/c mice
Set-up: Serum IL33 level / Serum TGF-B level: unit not given here
Conditions: for Schmidt Score (H&E): induced + vehicle = 10, non-induced = 0; for Pancreas IL33 level / Pancreas MPO activity / Pancreas TGF-B level: terminal pancreatic tissue; for Serum IL33 level / Serum TGF-B level / Serum amylase level / Serum lipase level: terminal serum; for pancreatic tissue levels of IL33: compared to the induced group
Protocol: Therapeutic efficacy of the compounds according to the present invention was assessed on an acute pancreatitis murine model. Tissue samples were obtained to allow post in-life analysis of pancreatitis parameters. Plasma samples were also obtained to assess animal exposure levels after administration of the compounds.
Animals: A total of 70 female Balb/c mice aged 8-10 weeks weighing approximately 20-25 g were used for the study (Charles River). After 7 days acclimatization, they were allocated into the different groups. […] Cages, bedding, and water were sanitized before use. Animals were provided with Corn-o-cobs enrichment bedding to provide environment enrichment and nesting material. […] The animal holding room were maintained as follows—room temperature at 20-24° C., humidity at 30-70% and a 12 h light/dark cycle used. Although animals used in this study were immuno-competent, preparation of dosing solutions and dosing/weighing of animals were carried out in a sterile biosafety cabinet.
Final formulation was in 5% DMSO, 10% Solutol, 10% PEG400, 75% 0.9% Saline and pH adjusted to 7 with 0.5M NaOH solution.
Final formulation is in 5% DMSO, 10% Solutol, 10% PEG400, 75% 0.9% Saline and pH adjusted to 7 with 0.5M NaOH solution. For per os (PO) dosing IVc-059a is formulated in water. Drug solutions were formulated on the day of dosing.
The purposes of this study were to assess efficacy compounds in an acute pancreatitis model (14 days), generate tissue samples to allow post in-life analysis of pancreatitis parameters and generate four plasma samples to assess animal exposure levels after first and last injection obtained from blood samples taken 1 h and 24 h after first and last injection.
Study Design: On the first study day animals were randomly be assigned to treatment groups, ensuring an equal spread of bodyweight. Mice (except negative control group) were treated with test compounds were given 5 minutes prior to caerulein dosing, followed by injection with caerulein at […] via intraperitoneal route (IP) daily during the study.
Treatment of test compounds were given 5 minutes prior to caerulein dosing.
Sampling and post in-life analyses: at times indicated above a whole blood sample (60 μl) were taken from the lateral tail vein into tubes coated with K2-EDTA. Plasma samples were prepared and stored frozen at −20° C. Plasma samples were sent to client bioanalysis provider Eurofins (FR) for quantification of compound.
Terminal Sampling: Prior to termination animals were weighed. Terminal study animals were culled via CO2 inhalation. A terminal blood sample was taken via cardiac puncture and plasma prepared. Lipase and Amylase activities were measured via ELISA using commercially available ELISA kits. Remaining plasma was stored for future cytokine analyses. Pancreas tissue was resected and weighed, and a section ([…]) snap frozen and analysed for quantification of compound in pancreas sample. A section ([…]) was processed for measurement of MPO activity, IL-33 and TGF-B levels via ELISA. The remainder was fixed in formalin and embedded in paraffin wax. H&E staining was carried out and section assessed using Schmidts standard scoring system, examining: edema, inflammatory infiltration, parenchymal necrosis, haemorrhage. Massons' Trichrome staining was carried out and area covered by fibrotic tissue quantified digitally using QuPath software. Terminal serum samples was used to assess blood chemistry using an IdeXX CHEM15 and LYTE4 clip (4 animals per treatment group).
Histopathology assessment of pancreatic injury based on 4 criteria: Oedema, Inflammatory infiltration, Parenchymal necrosis, Haemorrhage and scored as described below.
Schmidt score is the evaluation of the efficacy of the compounds based on the four histopathology criteria as described in the table below.

[1] = 1st experiment, caerulein induced, 15 mg/kg IV, Ib-010a and IVc-059a 150 mg/kg PO, Pirfenidone 40 mg/kg IV
[2] = 1st experiment, 15 mg/kg IV, Ib-010a and IVc-059a 150 mg/kg PO, Pirfenidone 40 mg/kg IV
[3] = second experiment, IV, 15 mg/kg, Pirfenidone 100 mg/kg

O=C(O)c1cc(NC(=O)c2cc(O)c(C(=O)Nc3ccccc3-c3nnn[nH]3)cc2O)ccc1O [Ic-001a-Tz/004a, 5-(4-(2-(1H-tetrazol-5-yl)phenylaminocarbonyl)-2,5-dihydroxybenzamido)-2-hydroxy benzoic acid]
Acinar cell necrosis (group mean score) [1]: 1.5
Haemorrhage (group mean score) [1]: 1.0
Interstitial oedema (group mean score) [1]: 1.6
Leukocyte infiltration (group mean score) [1]: 2.8
Mean terminal BW (% of initial) [1]: 93.5 % of initial
Mean terminal pancreas weight [1]: 0.104 g
Pancreas histopathology observations (H&E) [1]: Oedema observed throughout pancreas; also recorded: Mild haemorrhage observed; also recorded: Acinar cell necrosis observed; also recorded: Leukocyte infiltration throughout; also recorded: Disruption to the basophilic region
Schmidt Score (H&E) [1]: 6.9
Pancreas IL33 level [2]: 180 ± 54
Pancreas MPO activity [2]: 2.15
Pancreas TGF-B level [2]: 369 ± 195
Serum IL33 level [2]: 35.43
Serum TGF-B level [2]: 8.99
Serum amylase level [2]: 36.51
Serum lipase level [2]: 8.21
pancreatic tissue levels of IL33 (first experiment, IV): significant decrease

O=C(Nc1ccccc1-c1nnn[nH]1)c1cc(O)c(C(=O)Nc2ccccc2-c2nnn[nH]2)cc1O [Ic-001aTz2, N1,N4-bis(2-(1H-tetrazol-5-yl)phenyl)-2,5-dihydroxyterephthalamide]
Amylase [3]: 50.912 mU/mL
IL-33 [3]: 493 ± 126 ng/mL
Lipase [3]: 8.305 mU/mL
MPO [3]: 2.63 ± 0.63 U/mg
Schmidt Score [3]: 3.9 ± 0.8
TGF-B [3]: 696 ± 448 ng/mL
Trichome staining (Fibrosis % area) [3]: 1.366 ± 0.562 % area

O=C(O)c1cc(NC(=O)c2cc(O)c(C(=O)Nc3ccc(O)c(C(=O)O)c3)cc2O)ccc1O [Ic-007a, 5-(4-(3-carboxy-4-hydroxyphenylaminocarbonyl)-2,5-dihydroxybenzamido)-2-hydroxy benzoic acid]
Acinar cell necrosis (group mean score) [1]: 1.0
Haemorrhage (group mean score) [1]: 1.0
Interstitial oedema (group mean score) [1]: 1.0
Mean terminal BW (% of initial) [1]: 91.2 % of initial
Mean terminal pancreas weight [1]: 0.109 g
Pancreas histopathology observations (H&E) [1]: Mild oedema observed; also recorded: Mild haemorrhage observed; also recorded: Mild acinar cell necrosis observed; also recorded: Leukocyte infiltration observed; also recorded: Disruption to the basophilic region
Schmidt Score (H&E) [1]: 6.0
Pancreas IL33 level [2]: 147 ± 47
Pancreas MPO activity [2]: 1.65
Pancreas TGF-B level [2]: 188 ± 77
Serum IL33 level [2]: 34.93
Serum TGF-B level [2]: 6.17
Serum amylase level [2]: 34.86
Serum lipase level [2]: 9.28
TGF-B levels in pancreas (first experiment, IV): decreased significantly
pancreatic tissue levels of IL33 (first experiment, IV): significant decrease
